Reference: PMC3779320, “Bub3 reads phosphorylated MELT repeats to promote spindle assembly checkpoint signaling” (eLife, 2013)
Substitutions are numbered along the chain they refer to. Square brackets hold non-standard residues; d marks the D form. Peptide text beside a SMILES is read from it. pT = C[C@@H](OP(=O)(O)O)[C@H](N)C(=O)O

Assays:
[1] = target: T1, Bub1^289–359–Bub3 (Saccharomyces cerevisiae, UniProt P26449+P41695); experiment: ITC binding of MELT peptides to Bub1^289–359–Bub3 (wild type); conditions: 25°C, 20 mM Tris pH7.5, 150 mM NaCl, 1 mM DTE, complex 30 µM in cell, peptide 400 µM
T1 construct: S. cerevisiae Bub1^289–359 and for full length Bub3; GST (N, cleaved yes); made in house; host or cells: E. coli BL21 DE3 plysS
T1 sequence (P26449 1-341): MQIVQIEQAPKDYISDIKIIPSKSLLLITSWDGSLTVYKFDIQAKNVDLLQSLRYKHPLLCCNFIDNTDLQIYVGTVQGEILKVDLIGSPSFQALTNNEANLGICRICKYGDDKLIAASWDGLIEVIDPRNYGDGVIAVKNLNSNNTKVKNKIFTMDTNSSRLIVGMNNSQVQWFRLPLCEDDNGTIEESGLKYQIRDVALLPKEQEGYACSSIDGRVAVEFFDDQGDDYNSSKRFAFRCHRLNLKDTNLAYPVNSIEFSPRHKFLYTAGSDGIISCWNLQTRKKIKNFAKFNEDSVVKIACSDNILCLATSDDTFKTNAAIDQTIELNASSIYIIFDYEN
T1 sequence (P41695 289-359): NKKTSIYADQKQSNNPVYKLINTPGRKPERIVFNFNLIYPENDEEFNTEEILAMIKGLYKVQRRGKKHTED
Text: We generated recombinant ScBub1^289–359–Bub3 (where the Bub1 segment is equivalent to the minimal kinetochore targeting region of human Bub1 [[Krenn et al., 2012]]) by bacterial co-expression and purified it to homogeneity (Figure 1D). To assess whether Bub1–Bub3 binds directly to MELT^P sequences, we tested its ability to bind MELT sequences in quantitative isothermal titration calorimetry (ITC) binding experiments. 19-residue synthetic peptides encompassing the sequences of the second and fourth MELT^P motifs of Spc105/Knl1 (indicated as MELT2 and MELT4, respectively), each flanked by four and eleven residues on the N- and C-terminal ends, respectively, were tested (Figure 1C). […] Thus, ScBub1^289–359–Bub3 is sufficient for the reconstitution of tight interactions with two MELT^P peptides in vitro that recapitulate a salient feature of this interaction, its dependency on phosphorylation.
cDNA sequences coding for S. cerevisiae Bub1^289–359 and for full length Bub3 were subcloned in the first and second cassettes of pGEX-6P-2rbs vector ([Ciferri et al., 2005]). In this construct, the cDNA encoding Bub1^289–359 was sub-cloned in frame with the gene encoding GST and a cleavage site for PreScission protease, and was translated from the first ribosome-binding site (rbs). Untagged Bub3 was subcloned downstream of the second rbs in the same vector. Expression was carried out in BL21 DE3 plysS cells in LB medium by auto-induction with 0.3% lactose at 18°C for approximately 16 hr. Cells were harvested by centrifugation and resuspended in Buffer A (20 mM Tris pH 7.5, 300 mM NaCl, 10% Glycerol, 1 mM DTE, 1 mM EDTA pH 8.0, 1 mM PMSF) typically at a dilution of 3 ml lysis buffer per ml of bacterial pellet. Cells were lysed by sonication, and the lysates were cleared by centrifugation at 75000 × g for 45 min. The resulting clear supernatant was incubated with gentle rotation with 1/50 (vol/vol) of GSH-sepharose slurry (GE Healthcare) for 1–2 hr at 4°C. Beads were washed with 150 vol of Buffer A. To elute the Bub1–Bub3 complex from beads, GST-PreScission protease (0.02 mg/mg of protein target) was added for 16 hr at 4°C. The eluate was concentrated on Amicon Ultra Centrifugal Filters MwCO 3000 (Merck Millipore, Billerica, MA) and further purified by size exclusion chromatography (SEC) on a Superdex 75 16/60 column using GF buffer (20 mM Tris pH 7.5, 150 mM NaCl, 1 mM DTE). The complex eluted in a single peak with apparently stoichiometric amounts of Bub1^289–359 and Bub3 and was subsequently concentrated to ∼10 mg/ml for crystallization or to 2–4 mg/ml for ITC experiments. […]
(§1) Binding isotherm was measured at 25°C by isothermal titration calorimetry on a MicroCal ITC200 device (GE Healthcare, Piscataway, NJ). […]

[2] = target: T2, Bub1^289–359–Bub3^R239A (Saccharomyces cerevisiae, UniProt P26449+P41695, R239A); experiment: ITC binding to Bub1^289–359–Bub3^R239A; conditions: Bub3 R239A compared with wild type (13- to 25-fold for R217A or R239A)
T2 construct: S. cerevisiae Bub1^289–359 and for full length Bub3; ITC experiments with the MELT2^P peptide and Bub1^289–359–Bub3^R239A; GST (N, cleaved yes); made in house; host or cells: E. coli BL21 DE3 plysS
T2 sequence (P26449 1-341 R239A): T1 sequence (P26449 1-341) with R239A
T2 sequence (P41695 289-359): T1 sequence (P41695 289-359)
Text: Because the presence of a phosphate on Thr172^Spc105/Knl1 is essential for high-affinity binding of ScBub1^289–359–Bub3 to MELT^P peptides (Figure 1), we concentrated our mutational analysis on two residues that are directly implicated in the recognition of the peptide’s phospho-threonine, Arg217^Bub3 and Arg239^Bub3. Positively charged residues are invariant at these positions of the Bub3 alignment (Figure 2C). We generated single or double alanine mutants of Arg217^Bub3 and Arg239^Bub3 in the context of ScBub1^289–359–Bub3 and tested their binding affinity for the MELT2^P peptide by ITC.
cDNA sequences coding for S. cerevisiae Bub1^289–359 and for full length Bub3 were subcloned in the first and second cassettes of pGEX-6P-2rbs vector ([Ciferri et al., 2005]). In this construct, the cDNA encoding Bub1^289–359 was sub-cloned in frame with the gene encoding GST and a cleavage site for PreScission protease, and was translated from the first ribosome-binding site (rbs). Untagged Bub3 was subcloned downstream of the second rbs in the same vector. Expression was carried out in BL21 DE3 plysS cells in LB medium by auto-induction with 0.3% lactose at 18°C for approximately 16 hr. […]
as §1

Compound: CC[C@H](C)[C@H](NC(=O)[C@H](CO)NC(=O)[C@H](CCCNC(=N)N)NC(=O)[C@@H]1CCCN1C(=O)[C@H](Cc1ccccc1)NC(=O)[C@@H](NC(=O)[C@H](CCC(=O)O)NC(=O)[C@@H](NC(=O)[C@H](CCSC)NC(=O)[C@H](CCC(=O)O)NC(=O)[C@H](CCSC)NC(=O)[C@H](CO)NC(=O)[C@@H](NC(=O)[C@@H]1CCCN1C(=O)[C@H](CC(=O)O)NC(C)=O)[C@@H](C)O)[C@@H](C)OP(=O)(O)O)C(C)C)C(=O)N[C@@H](CCCNC(=N)N)C(=O)N[C@@H](CCC(N)=O)C(=O)N[C@@H](CCCCN)C(=O)N[C@@H](CC(N)=O)C(N)=O [MELT2^P] (Ac-DPTSMEM[pT]EVFPRSIRQKN-NH2; N-terminus and C-terminus assumed)
- binding (in words) [1]: no binding
- fold reduction in binding affinity [2]: 25 fold
